According to PubChem BioAssay AID1648 (Sanford-Burnham Center for Chemical Genomics, 2009):
The source made the active and inactive calls. The rule behind the calls is not given here.

Biological target: Serine/threonine-protein kinase mTOR (Homo sapiens) (UniProt P42345)
Assay: mTOR FRB domain ligand binding – biophysical, NMR (AID 1648)
Conditions: NMR binding to FRB domain, chemical shift

Chain of Serine/threonine-protein kinase mTOR (Homo sapiens) (P42345 2015-2114): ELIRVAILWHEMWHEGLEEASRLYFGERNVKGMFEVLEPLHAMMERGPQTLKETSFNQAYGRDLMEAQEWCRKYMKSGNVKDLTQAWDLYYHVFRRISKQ

Row | SMILES | Kd
1 | O=c1/c(=C\c2cccnc2)sc2nc3ccccc3n12 | > 4 mM (inactive)
2 | O=C1NC(=O)C(C2SC(=O)NC2=O)S1 (stereo not drawn) | > 4 mM (inactive)
3 | CC(=O)NC1C(=O)Nc2c(C)cc(C)cc21 (stereo not drawn) | > 4 mM (inactive)
4 | Cc1cc(NC(=O)c2ccc3c(c2)OCO3)no1 | > 4 mM (inactive)
5 | Cc1ccc(Nc2nc(N)nc(CC#N)n2)cc1 | > 4 mM (inactive)
6 | COC(=O)c1ccc2nc[nH]c2c1 | > 4 mM (inactive)
7 | Cc1cccc(C)c1NC(=O)CN1CCOCC1 | > 4 mM (inactive)
8 | Nc1ccc2sccc2c1 | > 4 mM (inactive)
9 | O=C1Cn2c(nc3ccccc32)N1c1ccccc1F | > 4 mM (inactive)
10 | O=C(CS(=O)(=O)c1ccccc1)N1CCCCCC1 | > 4 mM (inactive)
11 | COC(=O)[C@]1(C)CC[C@]2(C)CC[C@]3(C)C4=CC=C5C(=CC(=O)C(O)=C5C)[C@]4(C)CC[C@@]3(C)[C@@H]2C1 | > 4 mM (inactive)
12 | Cc1cc(NS(=O)(=O)Cc2ccccc2)no1 | > 4 mM (inactive)
13 | Cn1ccc(C(=O)NC(=S)NN2CCOCC2)n1 | > 4 mM (inactive)
14 | O=C(Nc1cccnc1)c1c(F)c(F)c(F)c(F)c1F | > 4 mM (inactive)
15 | O=C(O)C1=Cc2ccccc2OC1 | > 4 mM (inactive)
16 | O=C(Nn1cnnc1)c1csc2c1CCCC2 | > 4 mM (inactive)
17 | O=C1CSC(=Nc2ccccc2)N1 | > 4 mM (inactive)
18 | Nc1cc(-c2ccco2)[nH]n1 | > 4 mM (inactive)
19 | COc1cc([C@@H]2c3cc4c(cc3[C@H](O)[C@H]3COC(=O)[C@@H]23)OCO4)cc(OC)c1OC | > 4 mM (inactive)
20 | CCCCn1c(=O)cc(O)c2ccccc21 | > 4 mM (inactive)
21 | COc1ccc2[nH]c(O)c(NC(C)=O)c2c1 | > 4 mM (inactive)

Row | SMILES | Kd
22 | Nc1cccnc1N1CCOCC1 | > 4 mM (inactive)
23 | NC(=O)CSc1nc2[nH]ncc2c(=O)[nH]1 | > 4 mM (inactive)
24 | CC1=CC(=O)C2C(C)(C)CCC[C@]2(C)[C@@]1(O)CCc1ccoc1 (stereo partly drawn) | > 4 mM (inactive)
25 | CCn1c(C)c(C(C)=O)c(N2CCN(C)CC2)nc1=S | > 4 mM (inactive)
26 | N#Cc1cn(CC(=O)N2CCCC2)c2ccccc12 | > 4 mM (inactive)
27 | O=C1CN(C(=O)c2ccccc2F)c2ccccc2N1 | > 4 mM (inactive)
28 | O=C(Cc1cccs1)Nc1nncs1 | > 4 mM (inactive)
29 | Cn1c2c(c(=O)n(C)c1=O)CN(Cc1ccco1)CN2 | > 4 mM (inactive)
30 | O=C(O)C1C(=O)NCC1c1ccccc1 (stereo not drawn) | > 4 mM (inactive)
31 | Cc1ccc(SCC(=O)N2CCOCC2)cc1 | > 4 mM (inactive)
32 | C[C@@H]1O[C@@H](O[C@H]2CC[C@]3(C=O)C4CC[C@]5(C)[C@@H](C6=CC(=O)OC6)CC[C@]5(O)C4CC[C@]3(O)C2)[C@H](O)[C@H](O)[C@H]1O (stereo partly drawn) | > 4 mM (inactive)
33 | COc1ccccc1C(=O)NC1CCN(C)CC1 | > 4 mM (inactive)
34 | CCN1CCN(CCCNc2ncnc3nc[nH]c23)CC1 | > 4 mM (inactive)
35 | c1cc2c(cc1[C@H]1OC[C@H]3[C@@H]1CO[C@H]3c1ccc3c(c1)OCO3)OCO2 | > 4 mM (inactive)
36 | NC(=O)c1ccsc1NC(=O)c1cccnc1 | > 4 mM (inactive)
37 | CC1=NN(C(N)=S)C(C)(C)C1 | > 4 mM (inactive)
38 | Cc1nnc(N2CCc3ccccc3C2)[nH]c1=O | > 4 mM (inactive)
39 | O=C(O)CSCc1c(F)cccc1Cl | > 4 mM (inactive)
40 | N#Cc1c(N)c(C(=O)c2ccccc2)n2c1CCC2 | > 4 mM (inactive)
41 | COc1ccc(N2C(=N)C(C)(C)NC2=O)cc1 | > 4 mM (inactive)
42 | c1ccc(CNc2ncnc3nc[nH]c23)nc1 | > 4 mM (inactive)

Row | SMILES | Kd
43 | COC(=O)[C@@H]1OC(=O)[C@H]2O[C@@]23[C@@]1(C)CCC1[C@@]2(C)CCC(=O)C(C)(C)C2C[C@@H](OC(C)=O)[C@]13C (stereo partly drawn) | > 4 mM (inactive)
44 | CC1=NN(c2ccc(N)cc2)C(=O)C1 | > 4 mM (inactive)
45 | Cn1nnc2c(Cl)ncnc21 | > 4 mM (inactive)
46 | COc1ccc2cnn(-c3ccccc3)c(=O)c2c1OC | > 4 mM (inactive)
47 | Nc1cccc(-n2cccc2)c1 | > 4 mM (inactive)
48 | CC(=O)O[C@@H]1CC2C(C)(C)CCC(=O)[C@]2(C)C2CC[C@@]3(C)[C@H](c4ccoc4)OC(=O)C4OC43[C@@]21C (stereo partly drawn) | > 4 mM (inactive)
49 | CN1C(=O)CC(=O)N(C)c2ccccc21 | > 4 mM (inactive)
50 | CC1(C)CC2(CCO1)NCCN1C(=O)CSC12 (stereo not drawn) | > 4 mM (inactive)
51 | CCn1nnc(NC(=O)c2ccccc2Br)n1 | > 4 mM (inactive)
52 | C=C1C2CC[C@@]3(C)[C@H](c4ccoc4)OC(=O)C[C@]13O[C@H]1CC(=O)C(C)(C)[C@H](C(O)C(=O)OC)[C@@]21C (stereo partly drawn) | > 4 mM (inactive)
53 | COC(=O)/C(C)=C\CC12OC(C)(C)C3CC(C=C4C(=O)c5c(OC)c6c(c(CC=C(C)C)c5OC431)OC(C)(CCC=C(C)C)C=C6)C2=O (stereo not drawn) | > 4 mM (inactive)
54 | CN(C)C(=O)Nc1ccc(F)cc1F | > 4 mM (inactive)
55 | COc1cccc(C(=O)Nc2c(C)n[nH]c2C)c1 | > 4 mM (inactive)
56 | CN1CCC2(CC1)CC1CC3C=CC1(CN2)O3 (stereo not drawn) | > 4 mM (inactive)
57 | CN1CCC=C(C(=O)O)C1 | > 4 mM (inactive)
58 | CC(C)c1ccccc1NC(=O)c1cnccn1 | > 4 mM (inactive)
59 | NCCCCN | > 4 mM (inactive)
60 | CCc1ccccc1NC(=O)c1ccoc1C | > 4 mM (inactive)
61 | O=C1CNC(=O)N1Cc1ccc(F)cc1 | > 4 mM (inactive)
62 | O=C1CCCN1C(=O)CN1CCOCC1 | > 4 mM (inactive)
63 | CC(=O)O[C@@H]1CC2C(C)(C)C(=O)C=C[C@]2(C)C2CC[C@@]3(C)[C@H](c4ccoc4)OC(=O)[C@H]4O[C@]43[C@@]21C (stereo partly drawn) | > 4 mM (inactive)

Row | SMILES | Kd
64 | CC1(C)Cc2nc3n[nH]c(N)c3cc2CO1 | > 4 mM (inactive)
65 | Clc1ncnc2[nH]ncc12 | > 4 mM (inactive)
66 | Nc1nc(-c2cccnc2)nn1C(=O)Cc1ccccc1 | > 4 mM (inactive)
67 | CN(C)c1nc(N2CCOCC2)c2cnn(C)c2n1 | > 4 mM (inactive)
68 | O=C(NCCO)NC(=S)c1ccccc1 | > 4 mM (inactive)
69 | CS(=O)(=O)N1CCN(c2ncccn2)CC1 | > 4 mM (inactive)
70 | O=c1[nH]c2sc3c(c2c2nncn12)CCCC3 | > 4 mM (inactive)
71 | O=C(O)CCN1CCc2ccccc2C1c1ccncc1 (stereo not drawn) | > 4 mM (inactive)
72 | CC(=O)Nc1ccc(C(=O)N2CCOCC2)cc1Cl | > 4 mM (inactive)
73 | Cn1cnc2c(Cl)ncnc21 | > 4 mM (inactive)
74 | CC(=O)CS(=O)(=O)c1ccccc1 | > 4 mM (inactive)
75 | Cc1ccc(=O)[nH]c1 | > 4 mM (inactive)
76 | OCc1ccc2nonc2c1 | > 4 mM (inactive)
77 | COC(=O)CCC(C)C1CCC2C3CCC4C[C@H](O)CC[C@]4(C)C3C[C@H](O)[C@]12C (stereo partly drawn) | > 4 mM (inactive)
78 | CC(=O)Oc1cccc2ccc(=O)[nH]c12 | > 4 mM (inactive)
79 | Cc1ccn(S(=O)(=O)c2ccc(F)cc2)n1 | > 4 mM (inactive)
80 | COC(=O)[C@]1(C)CCC[C@]2(C)c3ccc(C(C)C)cc3C(=O)CC12 (stereo partly drawn) | > 4 mM (inactive)
81 | COCC(=O)Nc1cccc2ccccc12 | > 4 mM (inactive)
82 | Cc1oc(-c2ccccc2)cc1CO | > 4 mM (inactive)
83 | COc1ccccc1N1C(=N)SCC1=O | > 4 mM (inactive)
